Results from US20040009904A1, “APL immunoreactive peptides, conjugates thereof and methods of treatment for aPL antibody-mediated pathologies” (priority 1995, published 2004).
Values joined by “and” are separate entries in the source; they are usually repeats but may differ in a detail not shown here. Equal entries are not always repeated. Bridge positions count the residues as written; N and C are the ends. Peptide text beside a SMILES is read from it.

Assays:
[1] = biological target: ACA-6635; assay: Competitive binding peptide ACA ELISA, cardiolipin/β2-GPI-coated plates; parameters: species or system human; details: ACA serum 6635 RS
[2] = biological target: ACA-6903; assay: as above; parameters: species or system human
Experimental: (§1) A variation of this assay uses microtitration plates coated with human β2-glycoprotein I/cardiolipin (β2-GPI/CL) instead of tetravalent peptide and tests the ability of monomeric peptides to block the binding of aPL antibody to the epitope(s) on β2-GPI/CL. In this assay, IgG-depleted human serum at an optimized concentration is used as a source of β2-GPI. The monomeric peptides at several concentrations are incubated with an optimized concentration of aPL antibody in a manner analogous to the assay which employs tetravalent peptide as a plate substrate. Following the incubation of aPL/peptide in (β2-GPI/CL) plates, antibody binding and the peptide concentration required for 50% inhibition is determined at half-maximal absorbance as in the tetravalent assay.
(§2) Peptide sequences for all five peptides immediately follow the table. All were tested using the competitive binding peptide ACA ELISA using CL/β2-GPI plates as described herein.
(§3) (B) Immulon I® 96-well, flat-bottom, polystyrene microtitration plates (Dynatech Laboratories, Inc., Chantilly, Va.) were coated with 30 μL/well of cardiolipin (CL, 50 μg; Sigma Chemical Co., St. Louis, Mo.) in ethanol. Two control wells received 30 μL ethanol only. After overnight evaporation at 4° C., each well was blocked with 200 μL of 5% (w/v) fish gelatin in PBS for 2 hours at RT.
(§4) The CL/β2-GPI microtitration plate was washed 5 times with TBS and 100 μL aliquots in duplicate from Eppendorf tubes #1, 2, 3, and 4 containing the antibody-peptide (or no peptide mixtures) were added to the wells. A volume of 100 μL from tube #4 was added to the duplicate control wells containing no cardiolipin. The microtitration plate was incubated for 1 hour at RT with agitation at 40 rpm in an orbital shaker (American Scientific, Rotator V), washed 5 times with TBS and then 100 μL of 1:1000 goat anti-human IgG alkaline phosphatase conjugate (Zymed, Cat No. 62-8422) in 0.5% (w/v) BSA-TBS was added. Following incubation for 1 hour at RT, the microtitration plate was again washed 5 times with TBS and the colorimetric enzyme detection developed by adding 100 μL of PMPP solution (7.8 g phenolphthalein monophosphate plus 69.5 g of 2-amino-2-methyl-1-propanol in 100 mL water stock solution diluted 1:26 with water). After 21 minutes, the reaction was stopped by adding 50 μL of 0.2 M Na2HPO4 (Mallinckrodt) to each well. Absorbance at 550 nm was read in a microplate reader (Bio-Tek Instruments, Model EL 311). The amount of peptide that inhibited ACA-6501 binding by 50%, the IC50, was calculated from the graph at the intersection of half-maximal absorbance with amount of peptide added.

[3] = biological target: ACA-7005; assay: as above; parameters: species or system human
Experimental: as §1, §2, §3, §4

[4] = biological target: ACA-6638; assay: as above; parameters: species or system human
Experimental: as §1, §2, §3, §4

[5] = biological target: ACA-6701; assay: as above; parameters: species or system human
Experimental: as §1, §2, §3, §4

[6] = biological target: ACA-6626; assay: as above; parameters: species or system human
Experimental: as §1, §2, §3, §4

[7] = biological target: ACA-7004; assay: as above; parameters: species or system human
Experimental: as §1, §2, §3, §4

[8] = biological target: ACA-6641; assay: as above; parameters: species or system human
Experimental: as §1, §2, §3, §4

[9] = biological target: ACA-6644; assay: as above; parameters: species or system human
Experimental: as §1, §2, §3, §4

[10] = test system: ACA-6641; assay: Phage-capture ELISA; format: binding, human; details: ACA-6641 screen
Experimental: The phage-capture ELISA consists of the following steps. Microtitration wells are coated with aPL antibody and phage clones are added as in the micropanning assay. Unbound phage are washed away and the amount of bound phage is quantitated using an enzyme-conjugated goat antiserum which binds the major coat protein of the phage. Phage screened using phage-capture ELISA react with many aPL antibodies and provide a strong signal in subsequent ELISA assays. This intermediate level of sensitivity allows for greater efficiency in the peptide synthesis effort since few micropanning-positive phage are phage-capture ELISA positive. As a result, peptides synthesized from positive phage-capture ELISA phage are generally immunoreactive.
AffACA-6641 was isolated from 4 mL of plasma taken from patient number 6641. AffACA-6641 (10 μg) was incubated with the pooled p-III phage libraries in a final volume of 100 μL as described previously. Following four rounds of biopanning, 45 clones from the 3rd and 4th rounds were tested by micropanning. Of the 45, 23 scored negative. The 3rd round phage yielded two clones that scored 4+, two that scored 3+ and two that scored 2+. From the 4th round, one clone scored 4+, one scored 3+ and three scored 2+. […] Four base DNA sequencing gave the following translated peptide sequence: […]

[11] = test system: ACA antibodies; assay: Competitive binding peptide ACA ELISA, cardiolipin/β2-GPI-coated plates, panel of ACA antibodies (average); parameters: species or system human
Experimental: as §1, §2
As noted in Section I above, one synthetic peptide, 6641/3G3 was tested against several high titer ACA antisera. This peptide appeared to be crossreactive with the vast majority of ACA antisera tested as illustrated in FIG. 14.
as §3, §4

[12] = test system: ACA; assay: Structure Activity Relationship of the Crossreactive ACA Epitope (relative activity); format: binding, human; details: LJP 688 = 100
Source text: Peptide 6641/3G3 (LJP 688) was subjected to a number of analyses. The analyses included truncation at both the N-terminus and the C-terminus, disulfide substitution, substitution of alanine and glycine for amino acids in positions 2 through 8, substitution of branched aliphatic amino acids in positions 2, 4, 5 and 8, substitution of amino acids affecting conformation of the peptide, including substitution of α-methyl amino acids, substitution of basic amino acids in position 7, substitution of D-amino acids in positions 2 through 9, and the substitution of N-α-methyl amino acids in positions 1 through 9.

[13] = biological target: ACA-6501; assay: Competitive binding peptide ACA ELISA, cardiolipin/β2-GPI-coated plates; parameters: species or system human
How it was run: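 Monomeric peptides at several amounts were preincubated ~1 h at RT with ACA-6501 serum (final 1:400), then added to cardiolipin-coated, fish-gelatin-blocked plates with β2-GPI for 1 h at RT. Bound IgG was detected with alkaline phosphatase anti-human IgG and phenolphthalein monophosphate, read at 550 nm. IC50 was the peptide amount at half-maximal absorbance.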

[14] = peptide 1 mg/mL, affinity purified antibody

CC(C)C[C@@H]1NC(=O)[C@@H](NC(=O)[C@@H]2CCCN2C(=O)CNC(=O)[C@H](C)N)CSSC[C@@H](C(=O)N2CCC[C@H]2C(=O)NCC(=O)O)NC(=O)[C@H](CC(C)C)NC(=O)[C@H](CCCCN)NC(=O)CNC(=O)[C@H](CC(C)C)NC(=O)[C@H](C(C)C)NC(=O)CNC1=O [LJP 688, AGP-CLGVLGKLC-PG] (H-AGPCLGVLGKLCPG-OH; disulfide 4-12)
IC50 for peptide LJP 688 [1]: 1 mg/mL
IC50 for peptide LJP 688 ([2]; ACA serum 6903 RS): 0.8 mg/mL
Percent Inhibition of AffACA by Peptide Monomers, 6903 [2, 14]: 100%
IC50 for peptide LJP 688 ([3]; ACA serum 7005 RFL): 0.75 mg/mL
Percent Inhibition of AffACA by Peptide Monomers, 7005 [3, 14]: 95%
IC50 for peptide LJP 688 ([4]; ACA serum 6638 RS): 0.81 mg/mL
Percent Inhibition of AffACA by Peptide Monomers, 6638 [4, 14]: 100%
IC50 for peptide LJP 688 ([5]; ACA serum 6701 RS): 1.07 mg/mL
Percent Inhibition of AffACA by Peptide Monomers, 6701 [5, 14]: 100%
IC50 for peptide LJP 688 ([6]; ACA serum 6626 RS): 1.09 mg/mL
Percent Inhibition of AffACA by Peptide Monomers, 6626 [6, 14]: 100%
IC50 for peptide LJP 688 ([7]; ACA serum 7004 RFL): 0.67 mg/mL
Percent Inhibition of AffACA by Peptide Monomers, 7004 [7, 14]: 100%
IC50 for peptide LJP 688 ([8]; ACA serum 6641 RS): 0.89 mg/mL and 0.51 mg/mL
Percent Inhibition of AffACA by Peptide Monomers, 6641 [8, 14]: 93%
IC50 for peptide LJP 688 ([9]; ACA serum 6644 RS): 0.76 mg/mL
Percent Inhibition of AffACA by Peptide Monomers, 6644 [9, 14]: 100%
result in the phage-capture ELISA [10]: strongly positive
complete inhibition, cross-reactivity with 10 of 10 ACA antibodies ([11]; at 1.8 mg/mL): > 80%
IC50 for peptide LJP 688, mean ± sd ([11]; mean over ten ACA sera): 0.86 ± 0.16 mg/mL
Percent Inhibition of AffACA by Peptide Monomers, Ave. ([11]; peptide 1 mg/mL, average over nine antibodies): 97%
Relative Activity [12]: 100
IC50 for peptide LJP 688 ([13]; ACA serum 6501 RS, RFL): 0.89 mg/mL and 1.1 mg/mL
with ACA 6501 150 ug/mL ([13]; Optimization of Peptide 3G3, inf = no 50% inhibition): 850 µg/mL
Percent Inhibition of AffACA by Peptide Monomers, 6501 [13, 14]: 86%
